The assay concerns MDA-MB-231 cells. Kind of assay: MTT cell viability assay, MDA-MB-231. Type of assay: cell-based, human. To be noted: co-treatment with LYN-1604 for 24 h. For orientation: Formazan colour is commonly taken as a measure of viable cells.

Consider `CNC(=O)c1ccccc1Oc1nc(Nc2cc(OC)c(OC)c(OC)c2)ncc1Br` [SBI-0206965], for which the “effect on LYN-1604-induced cell death” value was “decrease LYN-1604-induced cell death”.

For the origin of these results see paper PMC5433508 (Chemical Science, 2017).
